Measurements from EP1433789A1, “Pyrrolopyrazines and their use as selective apoptosis inducers” (Aponetics AG, priority 2002, dated 2004).

Key:
Type in all cases: cell-based, human
K562 = test: Caspase dependencies (Hoechst 33342 readout with zVAD / zFA); set-up: key: 0: no effect; 1: weak effect; 2: strong effect
Procedure: (§1) This assay is performed in 96 well tissue culture plates. Appropriate number of cells (adherent cells: 3 - 5*10^3, suspension cells: 8 - 10*10^3) are being seeded out in 80 µl complete medium. Adherent cells are incubated for 24 h for proper spreading out before addition of test compounds while suspension cells are immediately treated with test compounds after seeding out. The test compounds are added in 20 µl complete medium containing max 5% DMSO. The final compound concentrations in the assays are 10 µM, 3 µM,1 µM and 0.3 µM, respectively. After 24 h or 48 h incubation at culture conditions, 10 µl medium containing Hoechst 33342 dye (Sigma B-2261) at 2-5 µg/ml are added to each well. The assay plates are then further incubated for 30 minutes and subsequently analyzed with a standard inverted fluorescence microscope. The readout allows the determination of the fraction of apoptotic nuclei as well as other morphological criteria specific for apoptosis as a function of the treatment. The following scores are used: 0 relating to no activity, 1 relating to weak activity comprising less than 50% of the cells and score 2 relating to strong activity comprising more than 50% of the cells.
(§2) Caspase dependencies are being evaluated by combining the compound treatment with the pan-caspase inhibitor zVAD or its control peptide zFA (ICN Pharmaceuticals # FK009 and FK029, respectively). Both peptides are being used at 20 µM concentration. In case of caspase dependencies a clear inhibition of the specific readout in all apoptosis tests should be detected. By comparing the readout of zVAD and zFA treated samples with the compound control it is possible to detect caspase resp. cystein proteinase dependencies. In case of inhibition by zVAD but not by zFA a clear caspase dependency is obvious. An inhibition by zVAD as well as by zFA points towards the involvement of cystein proteinases in the apoptotic cascade. […]

HeLa = test: as above; set-up: key: 0: no effect; 1: weak effect; 2: strong effect
Procedure: as §1, §2

H9 = test: Hoechst 33342 nuclear staining (Table 3); set-up: key: 0 relating to no activity; 1 relating to weak activity comprising less than 50% of the cells; score 2 relating to strong activity comprising more than 50% of the cells
Summary of the method: (§3)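 Adherent cells (3-5×10^3, pre-spread 24 h) or suspension cells (8-10×10^3) treated with compounds at 10, 3, 1 and 0.3 µM for 24 or 48 h, then Hoechst 33342 stained for 30 min. Apoptotic nuclear morphology scored by fluorescence microscopy: 0 none, 1 weak (<50% cells), 2 strong (>50% cells).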

SKMEL 1 = test: Hoechst 33342 nuclear staining (Table 3); set-up: key: 0 relating to no activity; 1 relating to weak activity comprising less than 50% of the cells; score 2 relating to strong activity comprising more than 50% of the cells
Summary of the method: as §3

PC-3 = test: Hoechst 33342 nuclear staining (Table 3); set-up: key: 0 relating to no activity; 1 relating to weak activity comprising less than 50% of the cells; score 2 relating to strong activity comprising more than 50% of the cells
Summary of the method: as §3

SMILES: CC1(C)Cc2ccccc2-c2c(Br)c3nc4ccccc4nc3n21 [No. 2, 13-Bromo-6,6-dimethyl-5,6-dihydro-6a,7,12-triaza-dibenzo[a,h]fluorene]
- nuclear fragmentation visualized by Hoechst 33342 staining (K562; K562, 24h, conc 10, no peptide): 2
- nuclear fragmentation visualized by Hoechst 33342 staining (K562; K562, 24h, conc 10, with zFA 20 µM): 2
- nuclear fragmentation visualized by Hoechst 33342 staining (K562; K562, 24h, conc 10, with zVAD 20 µM): 2
- nuclear fragmentation visualized by Hoechst 33342 staining (K562; K562, 48h, conc 10, no peptide): 2
- nuclear fragmentation visualized by Hoechst 33342 staining (K562; K562, 48h, conc 10, with zFA 20 µM): 2
- nuclear fragmentation visualized by Hoechst 33342 staining (K562; K562, 48h, conc 10, with zVAD 20 µM): 2
- nuclear fragmentation visualized by Hoechst 33342 staining (HeLa; 24h, conc 10, no peptide): 2
- nuclear fragmentation visualized by Hoechst 33342 staining (HeLa; 24h, conc 10, with zFA 20 µM): 2
- nuclear fragmentation visualized by Hoechst 33342 staining (HeLa; 24h, conc 10, with zVAD 20 µM): 1
- nuclear fragmentation visualized by Hoechst 33342 staining (HeLa; 48h, conc 10, no peptide): 2
- nuclear fragmentation visualized by Hoechst 33342 staining (HeLa; 48h, conc 10, with zFA 20 µM): 2
- nuclear fragmentation visualized by Hoechst 33342 staining (HeLa; 48h, conc 10, with zVAD 20 µM): 2
- Hoechst 33342 nuclear staining (fraction of apoptotic nuclei), score (H9; H9, 24h, 0.3 µM): 0
- Hoechst 33342 nuclear staining (fraction of apoptotic nuclei), score (H9; H9, 24h, 1 µM): 0
- Hoechst 33342 nuclear staining (fraction of apoptotic nuclei), score (H9; H9, 24h, 3 µM): 0
- Hoechst 33342 nuclear staining (fraction of apoptotic nuclei), score (H9; H9, 24h, 10 µM): 0
- Hoechst 33342 nuclear staining (fraction of apoptotic nuclei), score (H9; H9, 48h, 0.3 µM): 0
- Hoechst 33342 nuclear staining (fraction of apoptotic nuclei), score (H9; H9, 48h, 1 µM): 0
- Hoechst 33342 nuclear staining (fraction of apoptotic nuclei), score (H9; H9, 48h, 3 µM): 0
- Hoechst 33342 nuclear staining (fraction of apoptotic nuclei), score (H9; H9, 48h, 10 µM): 0
- Hoechst 33342 nuclear staining (fraction of apoptotic nuclei), score (SKMEL 1; SKMEL 1, 24h, 0.3 µM): 0
- Hoechst 33342 nuclear staining (fraction of apoptotic nuclei), score (SKMEL 1; SKMEL 1, 24h, 1 µM): 0
- Hoechst 33342 nuclear staining (fraction of apoptotic nuclei), score (SKMEL 1; SKMEL 1, 24h, 3 µM): 0
- Hoechst 33342 nuclear staining (fraction of apoptotic nuclei), score (SKMEL 1; SKMEL 1, 24h, 10 µM): 0
- Hoechst 33342 nuclear staining (fraction of apoptotic nuclei), score (SKMEL 1; SKMEL 1, 48h, 0.3 µM): 0
- Hoechst 33342 nuclear staining (fraction of apoptotic nuclei), score (SKMEL 1; SKMEL 1, 48h, 1 µM): 0
- Hoechst 33342 nuclear staining (fraction of apoptotic nuclei), score (SKMEL 1; SKMEL 1, 48h, 3 µM): 0
- Hoechst 33342 nuclear staining (fraction of apoptotic nuclei), score (SKMEL 1; SKMEL 1, 48h, 10 µM): 0
- Hoechst 33342 nuclear staining (fraction of apoptotic nuclei), score (PC-3; PC-3, 24h, 0.3 µM): 0
- Hoechst 33342 nuclear staining (fraction of apoptotic nuclei), score (PC-3; PC-3, 24h, 1 µM): 0
- Hoechst 33342 nuclear staining (fraction of apoptotic nuclei), score (PC-3; PC-3, 24h, 3 µM): 0
- Hoechst 33342 nuclear staining (fraction of apoptotic nuclei), score (PC-3; PC-3, 24h, 10 µM): 0
- Hoechst 33342 nuclear staining (fraction of apoptotic nuclei), score (PC-3; PC-3, 48h, 0.3 µM): 0
- Hoechst 33342 nuclear staining (fraction of apoptotic nuclei), score (PC-3; PC-3, 48h, 1 µM): 0
- Hoechst 33342 nuclear staining (fraction of apoptotic nuclei), score (PC-3; PC-3, 48h, 3 µM): 0
- Hoechst 33342 nuclear staining (fraction of apoptotic nuclei), score (PC-3; PC-3, 48h, 10 µM): 2 (score 2 relating to strong activity comprising more than 50% of the cells)
